Experimental data published in publication PMC8481799, “Lichen Polyphenolic Compounds for the Eradication of Candida albicans Biofilms” (Frontiers in Cellular and Infection Microbiology, 2021).
Values after ≈ are worked out from the molar mass of the structure shown. Values joined by “and” are separate entries in the source; they are usually repeats but may differ in a detail not shown here. Equal values may be shown once. Read-outs that look alike come from different tables or passages of the source.

What was measured:
[1] = test system: Candida albicans biofilms on the maturation phase; assay: Anti-maturation test (XTT), compounds added after 2 h adherence; assay type: cell-based, Candida albicans ATCC 28367; conditions: for IC50: Candida albicans
Protocol: (§1) The anti-maturation and/or anti-biofilm activities of lichen compounds were assessed as previously described ([Millot et al., 2017]). Briefly, C. albicans (ATCC® 28367™) cultures were prepared at a final concentration of 1 × 10^7 cells/ml in yeast nitrogen base medium (Difco, Detroit, MI), supplemented with 50 mM glucose (Sigma, St Louis, MO) (YNB-Glc) from a preculture incubated overnight at 37°C without shaking.
(§2) A total of 200 µl of yeast culture was added to each well of untreated 96-well tissue culture plates. The plates were then incubated at 37°C for 2 h for the anti-maturation test and for 24 h for the anti-biofilm test. After aspiration of spent media and free-floating microorganisms, 250 μl per well of YNB-Glucose and 50 μl lichen compound samples obtained by serial twofold dilutions of each stock solution over the final range 200 to 0.097 μg/ml or 200 to 6.25 μg/ml were added to wells. Controls were also present: untreated yeasts (negative control) and yeasts treated with 2% DMSO. After 24 and/or 48 h of incubation at 37°C followed by aspiration of spent media and free-floating microorganisms, the wells were washed with phosphate-buffered saline (PBS) and observed under an inverted optical microscope (IX51® inverted microscope, Olympus). Biofilms were quantified using a metabolic assay based on the reduction of a tetrazolium salt (XTT) and absorbance measurements at 492 nm (microplate reader LP400; Sanofi Diagnostics Pasteur) ([Cocuaud, 2005]; [Dalleau et al., 2008]). The percent inhibition was determined from the absorbance values compared to the mean absorbance value obtained for untreated wells (100%).
(§3) Concentrations of lichen products inhibiting 50% of biofilms were determined for each tested sample by constructing a dose–response curve and selecting the closest tested concentration value above or equal to 50% inhibition. All anti-maturation and anti-biofilm tests were performed at least in triplicate in at least two separate experiments. The lichen compounds with MMIC50 or/and MBIC50 less than 100 μg/ml were considered as potentially useful.
(§4) Anti-maturation and anti-biofilm tests were performed with C. albicans ATCC® 28367™, as previously described, in 96-well microplates with evernic acid alone, cyclodextrin alone, and evernic acid included in cyclodextrin at over 50 to 1.5 µM final range of evernic acid (serial twofold dilution).

red blood cells = assay: Hemolysis test; assay type: cell-based; conditions: at 100 µg/ml, 1 h
Protocol: Then, 480 µl of each dilution was added to 20 µl of healthy red blood cells (Poitiers University Hospital, Hematology Department) in microtubes (final hematocrit = 4%). Some microtubes were reserved for controls: untreated red blood cells (negative control), cells treated with sterile distilled water (positive control = 100% hemolysis), and cells treated with 1% DMSO. After 1 h of incubation at 37°C, the tubes were centrifuged for 10 s at 14,000 g (A14 centrifuge Jouan) twice, and 200 µl of each supernatant was transferred into 96-well microtiter plates for colorimetric measurements at 450 nm (microplate reader LP400; Sanofi Diagnostics Pasteur) in order to determine the hemolysis percentages of each compound ([Evans et al., 2013]). All tests were performed in duplicate (at least two separate experiments).

[2] = test system: HeLa human epithelial cervix cells; assay: Growth inhibition of HeLa cells (MTT, 72 h); assay type: cell-based; conditions: for Growth inhibition of HeLa cells (% inhibition): 72 h
Protocol: HeLa human epithelial cervix cells were grown as monolayers at 37°C in a 5% CO2–95% air humidified atmosphere in RPMI supplemented with 10% FBS and […] gentamycin and streptomycin. Cells (2,000 cells/well) were seeded into each well of 96-well plates. […] The final DMSO concentration was less than 1% and tested as a negative control. Cell viability at 72 h was studied using the MTT assay. Then, 5 µl of MTT (10 mg/ml) was added to each well, and the plates were incubated for 4 h. The medium was then removed by aspiration, and 200 µl DMSO was added to each well. Proliferation was determined spectrophotometrically by measuring the absorbance at 540 nm. The percent of growth inhibition (%GI) was calculated as follows: %GI = [(DO (ʎ540 nm) control - DO (ʎ540 nm) treated)/DO (ʎ540 nm) control] * 100. All experiments were performed in duplicate with at least two replicate experiments.

[3] = test system: Candida albicans preformed 24-h-old biofilm; assay: Anti-biofilm test (XTT) on preformed 24-h-old biofilm; assay type: cell-based, Candida albicans ATCC 28367
Protocol: as §1, §2, §3, §4

[4] = set-up: method as in Shcherbakova et al. (2021); conditions: ref Shcherbakova et al. (2021); cited from earlier work
48-h C. albicans biofilm = test system: 48-h C. albicans biofilm; set-up: method as in Peralta et al., 2016; conditions: 4 μg/ml, ref Peralta et al., 2016, cited from earlier work
[5] = test system: C. albicans planktonic yeast; assay: Minimal inhibitory concentration, broth microdilution (CLSI M27-A3 adapted); assay type: cell-based, Candida albicans ATCC 28367
Protocol: Stock solutions of lichen compounds were prepared in DMSO at 10 mg/ml and were used for all the experiments performed. Their antifungal minimum inhibitory concentrations (MICs) were determined by a broth microdilution method (CLSI reference M27-A3 micromethod adapted protocol) as previously described ([Millot et al., 2017]). Briefly, an inoculum of C. albicans ATCC® 28367™ (American Type Culture Collection) adjusted to 0.5 Mac Farland absorbance was diluted 1:1,000 in RPMI-MOPS. A volume of this yeast culture was added to an equivalent volume of compound solution at several concentrations (100 to 0.048 μg/ml final) in 96-well microtiter plates. Controls as untreated yeasts (negative control), yeasts treated with 2% DMSO and yeasts treated with fluconazole (positive control) were included. After 24 and 48 h incubation at 37°C without shaking, the MICs were determined. All tests were performed in duplicate in at least two separate experiments.

[6] = test system: 24-h Candida orthopsilosis biofilms; set-up: method as in Pires et al., 2012; conditions: 24-h biofilm, vs untreated controls; ref Pires et al., 2012; cited from earlier work
[7] = test system: 24-h C. parapsilosis biofilms; set-up: method as in Pires et al., 2012; conditions: 24-h biofilm, vs untreated controls; ref Pires et al., 2012; cited from earlier work
Candida krusei biofilm = test system: Candida krusei biofilm; set-up: method as in Kvasnickova et al., 2015; conditions: at 300 μg/ml, 24-h biofilm; ref Kvasnickova et al., 2015; cited from earlier work
[8] = test system: Candida parapsilosis biofilm; set-up: method as in Kvasnickova et al., 2015; conditions: at 300 μg/ml, 24-h biofilm; ref Kvasnickova et al., 2015; cited from earlier work
[9] = test system: C. albicans (ATCC: 90028) biofilm; set-up: method as in Nithyanand et al., 2015b; conditions: at 100 µg/ml, added before the adhesion step, ring test; ref Nithyanand et al., 2015b; cited from earlier work
C. albicans = test system: C. albicans; set-up: method as in Nithyanand et al., 2015b; conditions: at 100 µg/ml; ref Nithyanand et al., 2015b; cited from earlier work
[10] = 24 h of treatment, read-out: Anti-maturation activity MMIC50
[11] = 48 h of treatment, read-out: Anti-maturation activity MMIC50
[12] = Candida albicans, 24 h, 24 h of treatment, 24-h-old biofilm, read-out: Anti-biofilm activity MBIC50
[13] = Candida albicans, 48 h, 48 h of treatment, 24-h-old biofilm, read-out: Anti-biofilm activity MBIC50

| SMILES | IC50 [1, 10] | IC50 [1, 11] | IC50 [3, 12] | IC50 [3, 13] | Hemolytic activity (%) (red blood cells) | further results |
| --- | --- | --- | --- | --- | --- | --- |
| COc1cc(C)c(C(=O)Oc2cc(C)c(C(=O)O)c(O)c2)c(O)c1 [Compound 1, Evernic acid] | 100 µg/mL (≈ 301 µM) | 6.25 µg/mL and 18 µM | 200 µg/mL | ≤ 12.5 µg/mL | 0% | Hemolytic activity (%) (red blood cells; listed as Evernic acid): no hemolytic activity; Hemolytic activity (%) (red blood cells; listed as evernic acid): no effect at all; Growth inhibition of HeLa cells (% inhibition) ([2]; at 6.125 µg/ml): 22.2 ± 2.8%; Growth inhibition of HeLa cells (% inhibition) ([2]; at 100 µg/ml): more than 70%; Inhibition of HeLa cell growth ([2]; at the lowest tested / minimal active concentration (12.5 or 6.25 µg/ml)): 22%; Anti-biofilm activity MBIC50 ([3]; 48 h of treatment, 24-h-old biofilm): 12.5 µg/mL; IC50 ([3]; 48 h of treatment, 24-h-old biofilm, listed as Evernic acid, read-out: Anti-biofilm activity MBIC50): < 12.5 µM; IC50 ([3]; 48 h of treatment, 24-h-old biofilm, listed as evernic acid, read-out: Anti-biofilm activity MBIC50): 37 µM; IC50 ([3]; 48 h of treatment, 24-h-old biofilm, read-out: Anti-biofilm activity MBIC50): 37.5 µM; IC50 ([3]; Candida albicans, 48 h, cyclodextrin experiment, 1.5 to 50 µM, 48 h of contact, read-out: Concentration giving 50% inhibition of the biofilm): 12.5 µM; Predicted cytotoxicity risks [4]: absence of mutagenic, tumorigenic, reproductive, and irritant effects |
| COc1cc(C)c(C(=O)Oc2cc(C)c(C(=O)O)c(O)c2C)c(O)c1C(=O)O [Compound 2, Squamatic acid] | 50 µg/mL and 128 µM | 12.5 µg/mL and 32 µM | > 200 µg/mL | > 200 µg/mL | 0.4 ± 0.01% | Growth inhibition of HeLa cells (% inhibition) ([2]; at 12.5 µg/ml): 14.8 ± 1.6% |
| Cc1cc(OC(=O)c2c(C)cc(OC(=O)c3c(C)cc(O)cc3O)cc2O)cc(O)c1C(=O)O [Compound 5, gyrophoric acid] | > 200 µg/mL | 100 µg/mL (≈ 213 µM) | > 200 µg/mL | > 200 µg/mL | 0.5 ± 0.27% | Growth inhibition of HeLa cells (% inhibition) ([2]; at 100 µg/ml): 70.0 ± 2.3% |
| CC(=O)C1=C(O)C=C2Oc3c(C(C)=O)c(O)c(C)c(O)c3C2(C)C1=O (stereo in doubt) [Compound 11, (+)-usnic acid] | – | – | – | – | – | Biofilm biomass (48-h C. albicans biofilm; control 18.39): 4.91 μm^3/μm^2; Inhibition of biofilm biomass (48-h C. albicans biofilm): 73.3%; Reduction of biofilm thickness (48-h C. albicans biofilm): 76.8%; MIC [5]: > 100 µg/mL; IC50 ([1]; 24 h, read-out: Anti-maturation activity MMIC50): > 200 µg/mL; IC50 ([1]; 48 h, read-out: Anti-maturation activity MMIC50): > 200 µg/mL; Anti-maturation activity ([1]; at 200 µg/ml): not active; Concentration inducing 80% inhibition of cell growth [6]: 31.2 µg/mL; Concentration inducing 80% inhibition of cell growth [7]: 62.5 µg/mL; Anti-biofilm properties (Candida krusei biofilm): no anti-biofilm properties; Anti-biofilm activity ([3]; 24-h-old biofilm, in words): no anti-biofilm activity; IC50 ([3]; Candida albicans, 24 h, read-out: Anti-biofilm activity MBIC50): > 200 µg/mL; IC50 ([3]; Candida albicans, 48 h, read-out: Anti-biofilm activity MBIC50): > 200 µg/mL; IC50 ([3]; Candida albicans, read-out: MBIC50): ≥ 100 µg/mL; Anti-biofilm properties [8]: no anti-biofilm properties; Biofilm inhibition [9]: 65%; Antifungal activity (C. albicans): no antifungal activity |
| COC(=O)c1c(C)cc(OC(=O)c2c(C)cc(O)c(C=O)c2O)c(C)c1O [Compound 4, atranorin] | > 200 µg/mL | > 200 µg/mL | > 200 µg/mL | > 200 µg/mL | 0% | IC50 ([1]; incubation time not stated, read-out: MMIC50 (anti-maturation IC50)): ≥ 100 µg/mL; Growth inhibition of HeLa cells (% inhibition) ([2]; at 100 µg/ml): 84.5 ± 6.8% |
| COc1cc(C)c(C(=O)Oc2c(C)c(C(=O)O)c(O)c(C=O)c2O)c(O)c1C(=O)O [Compound 3, thamnolic acid] | 50 µg/mL and 120 µM | 12.5 µg/mL and 30 µM | > 200 µg/mL | > 200 µg/mL | 4.0 ± 0.02% | Growth inhibition of HeLa cells (% inhibition) ([2]; at 12.5 µg/ml): 11.0 ± 0.9% |

Further lines, with some results ahead:

| IC50 [1, 10] | IC50 [1, 11] | IC50 [3, 12] | IC50 [3, 13] | SMILES | Hemolytic activity (%) (red blood cells) | further results |
| --- | --- | --- | --- | --- | --- | --- |
| > 200 µg/mL | 100 µg/mL (≈ 206 µM) | > 200 µg/mL | 100 µg/mL | CCCCCC(=O)Cc1cc(O)c(O)c2c1C(=O)Oc1cc(O)c(C(=O)O)c(CCCCC)c1O2 [Compound 10, 3-hydroxyphysodic acid] | – | – |
| 200 µg/mL (≈ 518 µM) | 200 µg/mL (≈ 518 µM) | > 200 µg/mL | > 200 µg/mL | COc1cc(C)c2c(c1C=O)Oc1c(c(C)c(O)c3c1C(O)OC3=O)OC2=O (stereo not shown) [Compound 8, stictic acid] | – | – |
| > 200 µg/mL | > 200 µg/mL | > 200 µg/mL | > 200 µg/mL | Cc1cc(O)c(C=O)c2c1C(=O)Oc1c(C)c(O)c3c(c1O2)C(O)OC3=O (stereo not shown) [Compound 6, norstictic acid] | – | – |
| – | – | > 200 µg/mL | > 200 µg/mL | Cc1cc(O)c(C=O)c2c1C(=O)Oc1c(CO)c(O)c3c(c1O2)[C@@H](O)OC3=O [Compound 7, salazinic acid] | – | – |
| > 200 µg/mL | > 200 µg/mL | > 200 µg/mL | > 200 µg/mL | CCCCCC(=O)Cc1cc(O)cc2c1C(=O)Oc1cc(O)c(C(=O)O)c(CCCCC)c1O2 [Compound 9, physodic acid] | – | – |
